Measured values taken from US9840478B2 (MERCK SHARP & DOHME CORP., priority 2013, dated 2017).

Each compound was assayed on HIV-1 (H9IIIB strain) (assay: Cell-based HIV infection assay using a reporter (Cell-Based), MT4-GFP cells). Conditions: Human immunodeficiency virus 1, MT4-GFP cells infected with HIV-1 H9IIIB; 50% normal human serum; mean of at least two independent experiments; read-out: Cell-based IP.
Outline: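 MT4-GFP cells (HIV LTR-driven GFP) infected 24 h with HIV-1 H9IIIB at low MOI, then washed and plated with compounds in RPMI + 50% normal human serum, 0.4% DMSO final. Green cells counted at 24 and 48 h; R0 = 48 h/24 h ratio, inhibition normalized to DMSO and triple-drug control; IC50 from 4-parameter fit.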
For `C[C@H]1CN(S(=O)(=O)c2ccccc2)[C@@H](CCc2c(F)cccc2NC(=O)CC(c2ccc(F)cc2)c2ccc(F)cc2)CN1` [Example 89, N-(3-fluoro-2-{2-[(2S,5S)-5-methyl-1-(phenylsulfonyl)piperazin-2-yl]ethyl}phenyl)-3,3-bis(4-fluorophenyl) propanamide], the IC50 was 700 nM. In the case of `C[C@@H]1CNC[C@H](CCc2c(F)cccc2NC(=O)CC(c2ccc(F)cc2)c2ccc(F)cc2)N1S(=O)(=O)c1ccccc1` [Example 90, N-(3-fluoro-2-{2-[(2S,6R)-6-methyl-1-(phenylsulfonyl)piperazin-2-yl]ethyl}phenyl)-3,3-bis(4-fluorophenyl) propanamide], the IC50 is reported as 66 nM. In the case of `C[C@@H]1CNC[C@@H](CCc2c(F)cccc2NC(=O)CC(c2ccc(F)cc2)c2ccc(F)cc2)N1S(=O)(=O)c1ccccc1` [Example 91, N-(3-fluoro-2-{2-[(2R,6R)-6-methyl-1-(phenylsulfonyl)piperazin-2-yl]ethyl}phenyl)-3,3-bis(4-fluorophenyl) propanamide], the IC50 is reported as 1700 nM. Compound `C[C@H]1CNC[C@H](CCc2c(F)cccc2NC(=O)CC(c2ccc(F)cc2)c2ccc(F)cc2)N1S(=O)(=O)c1ccccc1` [Example 92, N-(3-fluoro-2-{2-[(2S,6S)-6-methyl-1-(phenylsulfonyl)piperazin-2-yl]ethyl}phenyl)-3,3-bis(4-fluorophenyl) propanamide] has an IC50 of 17 nM. `C[C@H]1CNC[C@@H](CCc2c(F)cccc2NC(=O)CC(c2ccc(F)cc2)c2ccc(F)cc2)N1S(=O)(=O)c1ccccc1` [Example 93, N-(3-fluoro-2-{2-[(2R,6S)-6-methyl-1-(phenylsulfonyl)piperazin-2-yl]ethyl}phenyl)-3,3-bis(4-fluorophenyl) propanamide] showed an IC50 of 120 nM. `C[C@@H]1CNC[C@H](CCc2c(F)cccc2NC(=O)[C@@H](N)[C@@H](c2ccc(F)cc2)c2cc(F)cc(F)c2)N1S(=O)(=O)c1ccccc1` [Example 94, (βS)-β-(3,5-difluorophenyl)-4-fluoro-N-(3-fluoro-2-{2-[(2S,6R)-6-methyl-1-(phenylsulfonyl)piperazin-2-yl]ethyl}phenyl)-L-phenylalaninamide] was tested, and the IC50 was 24 nM. `COC(=O)N[C@H](C(=O)Nc1cccc(F)c1CC[C@H]1CNC[C@H](C)N1S(=O)(=O)c1ccccc1)[C@@H](c1ccc(F)cc1)c1cc(F)cc(F)c1` [Example 95, (βS)-β-(3,5-difluorophenyl)-4-fluoro-N-(3-fluoro-2-{2-[(2S,6S)-6-methyl-1-(phenylsulfonyl)piperazin-2-yl]ethyl}phenyl)-Nα-(methoxycarbonyl)-L-phenylalaninamide] gave an IC50 of 20 nM. `C[C@H]1CNC[C@H](CCc2c(F)cccc2NC(=O)[C@@H](N)[C@@H](c2ccc(F)cc2)c2cc(F)cc(F)c2)N1S(=O)(=O)c1ccccc1` [Example 97, (βS)-β-(3,5-difluorophenyl)-4-fluoro-N-(3-fluoro-2-{2-[(2S,6S)-6-methyl-1-(phenylsulfonyl)piperazin-2-yl]ethyl}phenyl)-L-phenylalaninamide] gave an IC50 of 25 nM. For `C[C@@H]1CN(S(=O)(=O)c2ccccc2)[C@@H](CCc2c(F)cccc2NC(=O)[C@@H](N)[C@@H](c2ccc(Cl)cc2)c2cccc(OC(F)(F)F)c2)CN1` [Example 98, (βS)-4-chloro-N-(3-fluoro-2-{2-[(2S,5R)-5-methyl-1-(phenylsulfonyl)piperazin-2-yl]ethyl}phenyl)-β-[3-(trifluoromethoxy)phenyl]-L-phenylalaninamide], the IC50 was 350 nM. Work on `COC(=O)N[C@H](C(=O)Nc1cccc(F)c1CC[C@H]1CNC[C@H](C)N1S(C)(=O)=O)[C@@H](c1ccc(F)cc1)c1cc(F)cc(F)c1` [Example 99, (βS)-β-(3,5-difluorophenyl)-4-fluoro-N-(3-fluoro-2-{2-[(2S,6S)-6-methyl-1-(methylsulfonyl)piperazin-2-yl]ethyl}phenyl)-Nα-(methoxycarbonyl)-L-phenylalaninamide] yielded an IC50 of 16 nM. Compound `COC(=O)N[C@H](C(=O)Nc1cccc(F)c1CC[C@H]1CNC[C@H](C)N1S(=O)(=O)c1ccccc1)C(c1cccc(F)c1)c1cccc(F)c1` [Example 100, 3-fluoro-N-(3-fluoro-2-{2-[(2S,6S)-6-methyl-1-(phenylsulfonyl)piperazin-2-yl]ethyl}phenyl)-β-(3-fluorophenyl)-Nα-(methoxycarbonyl)-L-phenylalaninamide] has an IC50 of 30 nM. Compound `C[C@H]1CNC[C@H](CCc2c(F)cccc2NC(=O)[C@@H](N)[C@@H](c2ccc(Cl)cc2)c2cccc(F)c2)N1S(=O)(=O)c1ccccc1` [Example 101, (βS)-4-chloro-N-(3-fluoro-2-{2-[(2S,6S)-6-methyl-1-(phenylsulfonyl)piperazin-2-yl]ethyl}phenyl)-β-(3-fluorophenyl)-L-phenylalaninamide] has an IC50 of 24 nM. `C[C@H]1CNC[C@H](CCc2c(F)cccc2NC(=O)[C@@H](N)[C@@H](c2ccc(F)cc2)C2CCOCC2)N1S(=O)(=O)c1ccccc1` [Example 102, (βR)-4-fluoro-N-(3-fluoro-2-{2-[(2S,6S)-6-methyl-1-(phenylsulfonyl)piperazin-2-yl]ethyl}phenyl)-β-(tetrahydro-2H-pyran-4-yl)-L-phenylalaninamide] gave an IC50 of 19 nM. In the case of `COC(=O)N[C@H](C(=O)Nc1cccc(F)c1CC[C@H]1CNC[C@@H](C)N1S(=O)(=O)c1ccccc1)[C@@H](c1ccc(F)cc1)C1CCOCC1` [Example 103, (βR)-4-fluoro-N-(3-fluoro-2-{2-[(2S,6R)-6-methyl-1-(phenylsulfonyl)piperazin-2-yl]ethyl}phenyl)-Nα-(methoxycarbonyl)-β-(tetrahydro-2H-pyran-4-yl)-L-phenylalaninamide], the IC50 is reported as 8.6 nM. Compound `C[C@@H]1CNC[C@H](CCc2c(F)cccc2NC(=O)[C@@H](N)[C@@H](c2ccc(F)cc2)C2CCOCC2)N1S(=O)(=O)c1ccccc1` [Example 104, (βR)-4-fluoro-N-(3-fluoro-2-{2-[(2S,6R)-6-methyl-1-(phenylsulfonyl)piperazin-2-yl]ethyl}phenyl)-β-(tetrahydro-2H-pyran-4-yl)-L-phenylalaninamide] has an IC50 of 37 nM. With `C[C@H]1CNC[C@H](CCc2c(F)cncc2NC(=O)[C@@H](N)[C@@H](c2ccc(F)cc2)c2cc(F)cc(F)c2)N1S(=O)(=O)c1ccccc1` [Example 105, (βS)-β-(3,5-difluorophenyl)-4-fluoro-N-(5-fluoro-4-{2-[(2S,6S)-6-methyl-1-(phenylsulfonyl)piperazin-2-yl]ethyl}pyridin-3-yl)-L-phenylalaninamide] the IC50 was 19 nM. Compound `C[C@H]1CNC[C@H](CCc2c(F)cccc2NC(=O)[C@@H](N)[C@@H](c2ccc(F)cc2)c2cc(F)cc(F)c2)N1S(=O)(=O)c1cccc(F)c1` [Example 106, (βS)-β-(3,5-difluorophenyl)-4-fluoro-N-[3-fluoro-2-(2-{(2S,6S)-1-[(3-fluorophenyl)sulfonyl]-6-methylpiperazin-2-yl}ethyl)phenyl]-L-phenylalaninamide] has an IC50 of 30 nM. For `COC(=O)N[C@H](C(=O)Nc1cccc(F)c1CC[C@H]1CNC[C@H](C)N1S(=O)(=O)c1cccc(F)c1)[C@@H](c1ccc(F)cc1)c1cc(F)cc(F)c1` [Example 107, (βS)-β-(3,5-difluorophenyl)-4-fluoro-N-[3-fluoro-2-(2-{(2S,6S)-1-[(3-fluorophenyl)sulfonyl]-6-methylpiperazin-2-yl}ethyl)phenyl]-Nα-(methoxycarbonyl)-L-phenylalaninamide], the IC50 was 150 nM. Compound `C[C@H]1CNC[C@H](CCc2c(F)cccc2NC(=O)[C@@H](N)[C@@H](c2ccc(Cl)cc2)c2cccc(F)c2)N1S(C)(=O)=O` [Example 108, (βS)-4-chloro-N-(3-fluoro-2-{2-[(2S,6S)-6-methyl-1-(methylsulfonyl)piperazin-2-yl]ethyl}phenyl)-β-(3-fluorophenyl)-L-phenylalaninamide] has an IC50 of 32 nM. `CC(C)[C@H](c1ccc(Cl)cc1)[C@H](N)C(=O)Nc1cccc(F)c1CC[C@H]1CNC[C@H](C)N1S(=O)(=O)c1ccccc1` [Example 109, (βR)-4-chloro-N-(3-fluoro-2-{2-[(2S,6S)-6-methyl-1-(phenylsulfonyl)piperazin-2-yl]ethyl}phenyl)-β-(1-methylethyl)-L-phenylalaninamide] showed an IC50 of 65 nM. `CC(C)[C@H](c1ccc(Cl)cc1)[C@H](N)C(=O)Nc1cccc(F)c1CC[C@H]1CNC[C@@H](C)N1S(=O)(=O)c1ccccc1` [Example 110, (βR)-4-chloro-N-(3-fluoro-2-{2-[(2S,6R)-6-methyl-1-(phenylsulfonyl)piperazin-2-yl]ethyl}phenyl)-β-(1-methylethyl)-L-phenylalaninamide] gave an IC50 of 74 nM. `COC(=O)N[C@H](C(=O)Nc1cccc(F)c1CC[C@H]1CNC[C@H](C)N1S(=O)(=O)c1ccccc1)[C@@H](c1ccc(Cl)cc1)C(C)C` [Example 111, (βR)-4-chloro-N-(3-fluoro-2-{2-[(2S,6S)-6-methyl-1-(phenylsulfonyl)piperazin-2-yl]ethyl}phenyl)-Nα-(methoxycarbonyl)-β-(1-methylethyl)-L-phenylalaninamide] gave an IC50 of 34 nM. `COC(=O)N[C@H](C(=O)Nc1cccc(F)c1CC[C@H]1CNC[C@@H](C)N1S(=O)(=O)c1ccccc1)[C@@H](c1ccc(Cl)cc1)C(C)C` [Example 112, (βR)-4-chloro-N-(3-fluoro-2-{2-[(2S,6R)-6-methyl-1-(phenylsulfonyl)piperazin-2-yl]ethyl}phenyl)-Nα-(methoxycarbonyl)-β-(1-methylethyl)-L-phenylalaninamide] gave an IC50 of 19 nM. With `C[C@H]1CNC[C@H](CCc2c(F)cncc2NC(=O)[C@@H](N)[C@@H](c2ccc(Cl)cc2)c2cccc(F)c2)N1S(=O)(=O)c1ccccc1` [Example 113, (βS)-β-(4-chlorophenyl)-3-fluoro-N-(5-fluoro-4-{2-[(2S,6S)-6-methyl-1-(phenylsulfonyl)piperazin-2-yl]ethyl}pyridin-3-yl)-L-phenylalaninamide] the IC50 was 25 nM.
